Key:
PKCα = biological target: T1, PKCα (Homo sapiens, UniProt P17252); experiment: PKC competitive binding assay with [3H]-phorbol dibutyrate (PKCα); settings: cell-free, competition with [3H]-PDBu, PS vesicles; read-out: Ki PKCα
T1 construct: purchased Invitrogen
Experimental: (§1) With a panel of compounds bearing diverse functionality at C13, we began to explore how these modifications affect PKC binding and biological function. Because an obvious prerequisite for PKC pathway involvement is binding to PKC, compounds were initially evaluated for PKC affinity in a cell-free competitive binding assay with tritiated phorbol dibutyrate ([^3H]-PDBu). Assays were performed with representative members of both the conventional (PKCα) and novel (PKCδ) PKC families. Subsequently, compounds were assayed for PKC isoform translocation in real time in living cells using an optical assay. Translocation to the plasma membrane is the hallmark of PKC activation[18],[57],[60] and therefore monitoring the subcellular localization of a PKCδ-GFP fusion protein via confocal microscopy offers a convenient method for determining whether a compound enters a cell and engages its PKC isoform target. Finally and of clinical significance, we also determined the effect of compounds on CD22 surface expression in vitro in NALM6 cells, an ALL cell line previously studied in connection with CD22-targeted CAR T cell therapy, and two additional lymphoma cell lines[11],[31],[65].
(§2) PKC Binding Assay Protocol […]
(§3) competition with 3H-phorbol-12,13-dibutyrate (3H-PDBu) as described below. This procedure entails a glass-fiber filtration method to determine bound radioligand.
(§4) Preparation of PKC binding assay buffer
(§5) To a 50 mL polypropylene tube was added Tris-HCl (pH 7.4, 1 M, 1 mL), KCl (1 M, 2 mL), CaCl2 (0.1 M, 30 μL), and bovine serum albumin (BSA, 40 mg, Sigma-Aldrich). This mixture was diluted to 20 mL with deionized H2O and mixed gently. The buffer was stored on ice until use. The final […]
(§6) Supplementary Table1. PKC binding assay buffer composition.
(§7) Preparation of phosphatidylserine (PS) vesicles
(§8) For every two assays, 3.5 mg phosphatidylserine (Avanti Polar Lipids, porcine, 25 mg/mL CHCl3 solution) was concentrated by removing chloroform under a stream of nitrogen followed by reduced pressure. The solid PS was suspended as vesicles in freshly prepared PKC binding assay buffer (3.5 mL) by sonicating six times for 30 sec, with a 30 sec rest between sonications (Branson Sonifier 250, power = 2, 50% duty cycle). The resulting milky cloudy mixture (1 mg/mL) was stored […]
(§9) Preparation of PKC isoform solution
(§10) Assay PKC was prepared by dissolving a 4 μg aliquot of the indicated recombinant human PKC isoform (Invitrogen) into 11.6 mL of PKC binding assay buffer (this amount is sufficient for two assays). The diluted PKC was stored on ice for immediate use.
(§11) Preparation of 3H-PDBu solution
(§12) 3H-PDBu (American Radiolabeled Chemicals, Inc.; 1 mCi/mL acetone solution; specific activity: […]) was diluted 10-fold with DMSO. The resulting 500 nM stock solution was further diluted with DMSO to 30 nM.
(§13) Preparation of analog compound dilutions
(§14) Compound dilutions were prepared by serially diluting from a chosen "high" concentration by factors of 3 or 4. For each analog compound, seven concentrations were used to define the […]
(§15) To a polypropylene tube was added 3.3 mL of 1 mg/mL PS vesicles solution, 11 mL of PKC isoform solution, and 1.1 mL of 30 nM 3H-PDBu solution were added. The resulting solution was vortexed to mix and stored on ice.
(§16) PKC binding assay protocol
(§17) - Glass-fiber filters (Whatman GF/B) were prepared by soaking them in a solution of aqueous polyethyleneimine (10% by vol, 18 mL) in deionized water (600 mL) for ≥1h.
(§18) - 500 mL "rinsing buffer" of 20 mM Tris, pH 7.4 was cooled on ice for the duration of the incubation period and for the remainder of the assay.
Triplicate data points were obtained for each analog concentration. For each data point, 280 μL of "Master Mix" Solution and 20 μL of analog compound at a specified concentration were added to a polypropylene tube. Non-specific 3H-PDBu binding was assessed in triplicate by substitution

PKCδ = biological target: T2, PKCδ (Homo sapiens, UniProt Q05655); experiment: PKC competitive binding assay with [3H]-phorbol dibutyrate (PKCδ); settings: cell-free, competition with [3H]-PDBu, PS vesicles
T2 construct: purchased Invitrogen
Experimental: as §1, §2, §3, §4, §5, §6, §7, §8, §9
Assay PKC was prepared by dissolving a 4 μg aliquot of the indicated recombinant human PKC isoform (Invitrogen) into 11.6 mL of PKC binding assay buffer (this amount is sufficient for two assays). The diluted PKC was stored on ice for immediate use. […]
μCi/mmol) was diluted 10-fold with DMSO. The resulting 500 nM stock solution was further diluted with DMSO to 30 nM.
as §13, §14, §15, §16, §17, §18
Triplicate data points were obtained for each analog concentration. For each data point, 280 μL of "Master Mix" Solution and 20 μL of analog compound at a specified concentration were added to a polypropylene tube. Non-specific 3H-PDBu binding was assessed in triplicate by substitution […]
μM). Maximal 3H-PDBu binding was assessed in triplicate by substitution of the analog compound with 20 μL DMSO. The solutions were vortexed to mix, incubated at 37 °C for 10 min, and […]

PKC = PKC competitive binding assay, isoform not specified; set-up: species or system human; settings: conventional and novel PKC isoforms
Experimental: as §1, §2, §3, §4, §5, §6, §7, §8, §9, §10, §11, §12, §13, §14, §15, §16
- Glass-fiber filters (Whatman GF/B) were prepared by soaking them in a solution of […]

T2 sequence (Q05655 whole entry): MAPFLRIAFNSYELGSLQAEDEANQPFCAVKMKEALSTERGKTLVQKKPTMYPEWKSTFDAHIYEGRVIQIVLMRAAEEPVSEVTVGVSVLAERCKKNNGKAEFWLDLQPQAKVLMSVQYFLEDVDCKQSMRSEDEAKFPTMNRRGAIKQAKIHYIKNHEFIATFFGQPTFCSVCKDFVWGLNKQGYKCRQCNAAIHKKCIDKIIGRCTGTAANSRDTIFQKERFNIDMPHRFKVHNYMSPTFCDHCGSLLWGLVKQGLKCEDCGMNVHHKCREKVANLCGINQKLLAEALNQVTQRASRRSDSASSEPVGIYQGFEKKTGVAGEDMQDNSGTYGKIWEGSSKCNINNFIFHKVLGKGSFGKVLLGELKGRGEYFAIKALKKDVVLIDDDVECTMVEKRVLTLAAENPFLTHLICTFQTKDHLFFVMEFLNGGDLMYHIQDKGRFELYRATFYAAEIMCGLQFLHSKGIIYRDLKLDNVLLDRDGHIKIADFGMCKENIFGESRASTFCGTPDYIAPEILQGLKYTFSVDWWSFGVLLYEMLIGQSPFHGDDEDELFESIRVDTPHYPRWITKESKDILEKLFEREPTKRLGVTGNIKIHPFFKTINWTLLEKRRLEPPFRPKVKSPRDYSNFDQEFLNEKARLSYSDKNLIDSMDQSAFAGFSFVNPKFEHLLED

| Structure (SMILES) | Ki (PKCα) | Ki (PKCδ) | PKC binding affinity in words (PKC) |
| --- | --- | --- | --- |
| CCCCCC#CC(=O)O[C@H]1/C(=C/C(=O)OC)C[C@H]2C[C@H]([C@@H](C)O)OC(=O)C[C@H](O)C[C@@H]3C[C@H](OC(C)=O)C(C)(C)[C@](O)(C[C@@H]4C[C@H](O)C[C@H](/C=C/C(C)(C)[C@]1(O)O2)O4)O3 [SUW204] | 1.4 nM | 3.7 nM | single-digit nanomolar |
| CCC/C=C/C=C/C(=O)O[C@H]1/C(=C/C(=O)OC)C[C@H]2C[C@H]([C@@H](C)O)OC(=O)C[C@H](O)C[C@@H]3C[C@H](OC(C)=O)C(C)(C)[C@](O)(C[C@@H]4C[C@@H](OC(C)=O)C[C@H](/C=C/C(C)(C)[C@]1(O)O2)O4)O3 [SUW207] | 2 nM | 5.4 nM | – |
| CCCC=CC=CC(=O)OC1C(=CC(=O)OC)CC2CC(C(C)O)OC(=O)CC(O)CC3CC(OC(C)=O)C(C)(C)C(O)(CC4CC(OC(=O)Nc5ccccc5)CC(C=CC(C)(C)C1(O)O2)O4)O3 (stereo not drawn) [SUW208] | 1 nM | 4.7 nM | – |
| CCCC=CC=CC(=O)OC1C(=CC(=O)OC)CC2CC(C(C)O)OC(=O)CC(O)CC3CC(OC(C)=O)C(C)(C)C(O)(CC4CC(OC(=O)CC56CC7CC(CC(C7)C5)C6)CC(C=CC(C)(C)C1(O)O2)O4)O3 (stereo not drawn) [SUW209] | 1.6 nM | 3.5 nM | – |
| CCCC=CC=CC(=O)OC1C(=CC(=O)OC)CC2CC(C(C)O)OC(=O)CC(O)CC3CC(OC(C)=O)C(C)(C)C(O)(CC4CC(OC(=O)CCc5c[nH]c6ccccc56)CC(C=CC(C)(C)C1(O)O2)O4)O3 (stereo not drawn) [SUW210] | 5.6 nM | 7.3 nM | – |
| CCCC=CC=CC(=O)OC1C(=CC(=O)OC)CC2CC(C(C)O)OC(=O)CC(O)CC3CC(OC(C)=O)C(C)(C)C(O)(CC4CC(=CC(=O)OCC)CC(C=CC(C)(C)C1(O)O2)O4)O3 (stereo not drawn) [SUW217] | 9.2 nM | 9.4 nM | – |
| CCCC=CC=CC(=O)OC1C(=CC(=O)OC)CC2CC(C(C)O)OC(=O)CC(O)CC3CC(OC(C)=O)C(C)(C)C(O)(CC4CC(=CC(=O)OCC)CC(C=CC(C)(C)C1(O)O2)O4)O3 (stereo not drawn) [SUW218] | 7.1 nM | 6.6 nM | – |

Source: paper PMC7170889, “Synthesis and evaluation of designed PKC modulators for enhanced cancer immunotherapy” (Nature Communications, 2020)
